Results: publication PMC2033546, “Effects of somatostatin analogue RC-160 and bombesin/gastrin-releasing peptide antagonists on the growth of human small-cell and non-small-cell lung carcinomas in nude mice” (British Journal of Cancer, 1994)
Where no end group is shown, it is not given here. [ ]: non-standard residue; d: D form.

What was measured:
[1] = system: non-SCLC cell line NCI-H157; test: Growth of H157 non-SCLC xenografts in nude mice; type: in vivo, human (xenograft in male athymic nude mice); details: RC-160 100 µg/day, RC-3095 20 µg/day
From the text: (§1) Br. J. Cancer (1994). 70, 886 892 ? Macmillan Press Ltd.. […] Bombesin GRP antagonists. […] Lung carcinoma is the leading cause of cancer-related deaths in the western world. It is estimated that in 1992 there were approximately 168,000 new cases of lung cancer in the US and that about 146,000 deaths occurred from this disease (Boring et al., 1992). […] The growth factors such as bombesin/gastrin-releasing pep- tide (GRP), epidermal growth factor, (EGF), transforming growth factor a (TGF-x) and insulin-like growth factor I(IGF-I) appear to play a role in the proliferation and pro- gression of lung cancer (Cuttitta et al., 1985; Veale et al., 1987; Minuto et al., 1988; Siegfried & Owens, 1988; Macaulay et al., 1990; Tateishi et al., 1991; Damstrup et al., 1992; Sethi & Rozengurt, 1992; Rabiasz et al., 1992; Moody & Cuttitta, 1993). […] Tpi is 2,3,4,9-tetrahydro- Correspondence: A.V. Schally (151). VA Medical Center, 1601 Per- dido Street. New Orleans, LA 70146. USA. Received 1 March 1994; and in revised form 5 July 1994. Br. J. Cancer (1994), 70, 886-892 C Macmillan Press Ltd., 1994 PEPTIDE ANALOGUES IN LUNG CANCER 8U7 lH-pyrido [3,4bjindol-3-carboxylic acid, a conformationally constrained secondary amine derivate of tryptophan and Tac is thiazolidine-4-carboxylic acid. […] Animals Male athymic NCr nulmu nude mice, approximately 6 weeks old on arrival, were obtained from the NCI (Bethesda, MD, USA) and maintained under pathogen-limited conditions. Cell lines The human SCLC cell line NCI-H69, was obtained from the American Type Cell Culture (ATCC), Rockville, MD, USA and the non-SCLC cell line NCI-H157, from Dr H. Oie, NCI-Navy Medical Oncology Branch, Bethesda, MD, USA. These cell lines were cultured in RPMI-1640 medium supple- mented with 4 mM L-glutamine, 50 units ml-I penicilln G sodium, SOigml-' streptomycin sulphate, 0.125pgml-' amphotericin B and 10% fetal bovine serum at 3TC in a humidified 95% air/5% carbon dioxide atmosphere. CeLs were passaged weekly and routinely monitored for myco- plasma contamination using a detection kit (Boehringer- Mannheim, Mannheim, Germany). All culture media com- ponents were purchased from Gibco (Grand Island, NY, USA). Receptor assays Preparation of membranes for receptor studies was described previously (Halmos et al., 1993). Iodinated EGF and IGF-I were purchased from Amersham (Arlington Heights, IL, USA). Radioiodination of other peptides and receptor bind- ing of EGF, IGF-I, somatostatin and bombesin/GRP were performed as previously described (Srkalovic et al., 1989; Szepeshazi et al., 1992). Complete displacement assays on tumour membranes were done only once because of the shortage of tumour material. The LIGAND PC computerised curve-fitting programme of Munson and Rodbard (1980) was used to determine the types of receptor binding, dissociation constant (Kd) values, and the maximal binding capacity (BDj) of receptors. In order to determine the specificity of the binding sites for radiolabelled EGF, IGF-I, somatostatin and bombesin to lung cancer membranes, various structuraly related and unrelated peptides were tested for their ability to inhibit the binding of the tracers. Histological procedure The histological procedures were the same as described previously (Szepeshazi et al., 1991, 1992). The number of mitotic and apoptotic cells per 1,000 cells was determined, and the percentage area of necrosis in tumour sections was examined using the point-counting method (Szepeshazi et al., 1991, 1992), in which the crossing points of an ocular net that coincide with necrosis in various sections are counted. Radiommunoassays Serum levels of growth hormone were determined by double- antibody radioimmunoassay (RIA) using materials supplied by the National Hormone and Pituitary Program of the National Institute of Diabetes and Digestive and Kidney Diseases (NIDDK).

[2] = system: IGF-I receptors in membranes of non-SCLC H157 tumours; test: IGF-I receptor binding on H157 tumour membranes after in vivo treatment; design: species or system human
From the text: as §1, with “Receptor assays Preparation of membranes for receptor studies was described previously (Halmos et al., 1993). Iodinated EGF and IGF-I were purchased from Amersham (Arlington Heights, IL, USA). Radioiodination of other peptides and receptor bind- ing of EGF, IGF-I, somatostatin and bombesin/GRP were performed as previously described (Srkalovic et al., 1989; Szepeshazi et al., 1992). Complete displacement assays on tumour membranes were done only once because of the shortage of tumour material. The LIGAND PC computerised curve-fitting programme of Munson and Rodbard (1980) was used to determine the types of receptor binding, dissociation constant (Kd) values, and the maximal binding capacity (BDj) of receptors. In order to determine the specificity of the binding sites for radiolabelled EGF, IGF-I, somatostatin and bombesin to lung cancer membranes, various structuraly related and unrelated peptides were tested for their ability to inhibit the binding of the tracers. Histological procedure The histological procedures were the same as described previously (Szepeshazi et al., 1991, 1992).” left out

[3] = Serum growth hormone (GH) radioimmunoassay in nude mice; type: in vivo
From the text: Br. J. Cancer (1994). 70, 886 892 ? Macmillan Press Ltd.. […] Bombesin GRP antagonists. […] Lung carcinoma is the leading cause of cancer-related deaths in the western world. It is estimated that in 1992 there were approximately 168,000 new cases of lung cancer in the US and that about 146,000 deaths occurred from this disease (Boring et al., 1992). […] CeLs were passaged weekly and routinely monitored for myco- plasma contamination using a detection kit (Boehringer- Mannheim, Mannheim, Germany). […] The number of mitotic and apoptotic cells per 1,000 cells was determined, and the percentage area of necrosis in tumour sections was examined using the point-counting method (Szepeshazi et al., 1991, 1992), in which the crossing points of an ocular net that coincide with necrosis in various sections are counted. Radiommunoassays Serum levels of growth hormone were determined by double- antibody radioimmunoassay (RIA) using materials supplied by the National Hormone and Pituitary Program of the National Institute of Diabetes and Digestive and Kidney Diseases (NIDDK).

[4] = system: Bombesin/GRP receptors in membranes of SCLC H69 tumours; test: Bombesin/GRP receptor binding on H69 tumour membranes after in vivo treatment; design: species or system human; details: Table IV, Experiment I (SCLC-H69); tumour membranes after in vivo treatment; control 420; done once
From the text: as §1, with “In order to determine the specificity of the binding sites for radiolabelled EGF, IGF-I, somatostatin and bombesin to lung cancer membranes, various structuraly related and unrelated peptides were tested for their ability to inhibit the binding of the tracers. Histological procedure The histological procedures were the same as described previously (Szepeshazi et al., 1991, 1992).” left out

[5] = system: EGF receptors in membranes of SCLC H69 tumours; test: EGF receptor binding on H69 tumour membranes after in vivo treatment; design: species or system human
From the text: as §1, with “In order to determine the specificity of the binding sites for radiolabelled EGF, IGF-I, somatostatin and bombesin to lung cancer membranes, various structuraly related and unrelated peptides were tested for their ability to inhibit the binding of the tracers. Histological procedure The histological procedures were the same as described previously (Szepeshazi et al., 1991, 1992).” left out

[6] = system: IGF-I receptors in membranes of SCLC H69 tumours; test: IGF-I receptor binding on H69 tumour membranes after in vivo treatment; design: species or system human; details: Table IV, Experiment I (SCLC-H69), control 294, done once
From the text: as §1, with “Receptor assays Preparation of membranes for receptor studies was described previously (Halmos et al., 1993). Iodinated EGF and IGF-I were purchased from Amersham (Arlington Heights, IL, USA). Radioiodination of other peptides and receptor bind- ing of EGF, IGF-I, somatostatin and bombesin/GRP were performed as previously described (Srkalovic et al., 1989; Szepeshazi et al., 1992). Complete displacement assays on tumour membranes were done only once because of the shortage of tumour material. The LIGAND PC computerised curve-fitting programme of Munson and Rodbard (1980) was used to determine the types of receptor binding, dissociation constant (Kd) values, and the maximal binding capacity (BDj) of receptors. In order to determine the specificity of the binding sites for radiolabelled EGF, IGF-I, somatostatin and bombesin to lung cancer membranes, various structuraly related and unrelated peptides were tested for their ability to inhibit the binding of the tracers. Histological procedure The histological procedures were the same as described previously (Szepeshazi et al., 1991, 1992).” left out

[7] = Serum gastrin radioimmunoassay in nude mice; type: in vivo; details: both experiments, after chronic treatment, vs controls
[8] = system: human SCLC cell line NCI-H69; test: Growth of H69 SCLC xenografts in nude mice; type: in vivo, human (xenograft in male athymic nude mice)
From the text: as §1

[9] = system: Somatostatin receptors in membranes of SCLC H69 tumours; test: Somatostatin receptor binding on H69 tumour membranes after in vivo treatment; design: species or system human
From the text: as §1, with “In order to determine the specificity of the binding sites for radiolabelled EGF, IGF-I, somatostatin and bombesin to lung cancer membranes, various structuraly related and unrelated peptides were tested for their ability to inhibit the binding of the tracers. Histological procedure The histological procedures were the same as described previously (Szepeshazi et al., 1991, 1992).” left out

[10] = system: LNCaP prostatic cancer cells; details: LNCaP cells in culture; ref Gattani et al., 1990; cited from earlier work
From the text: (§2) Br. J. Cancer (1994). 70, 886 892 ? Macmillan Press Ltd..

[11] = system: MIA PaCa-2 human pancreatic cancer cell line; details: ref Liebow et al., 1989; cited from earlier work
From the text: as §2

[12] = H69 SCLC xenografts, as compared with control group, RC-160 100 µg, RC-3950-II 20 µg per animal per day s.c. peritumorally, 5 weeks

For “[dF]CY[dW]KVCW-NH2 (cysteine pairing not given here) [RC-160, Somatostatin analogue RC-160]”, the “Growth of H157 non-SCLC tumours (in words)” value ([1]; 4 weeks s.c., SB-75 100 µg/day per animal, vs control) was “significantly reduced”, the “Tumour volume, final” value ([1]; Table I, Experiment II (non-SCLC H157), 4 weeks s.c. peritumoral, SB-75 100 µg/day per animal, control 1580.3 ? 455.7, means ? s.d., ten animals per group, *P<0.05 vs control) was 291.0 207.8* (mm)r and the Tumour weight ([1]; Table I, Experiment II (non-SCLC H157), 4 weeks s.c., SB-75 100 µg/day, control 1.9 ? 0.3, means ? s.d., *P<0.05 vs control) was 0.64 0.3* g. The Tumour doubling time ([1]; Table I, Experiment II (non-SCLC H157), 4 weeks s.c., SB-75 100 µg/day, control 3.88) was 6.06 days, the “IGF-I maximal binding capacity (Bmax)” value ([2]; Table IV, Experiment II (non-SCLC H157), tumour membranes after in vivo treatment, control 257, done once) was 129 fmol mg' protein and the “IGF-I binding sites on H157 tumours (in words)” value ([2]; after in vivo treatment) was “decreased”. For the same substance, the “Serum GH levels (in words)” value ([3]; both experiments, after chronic treatment, vs controls) was “significantly decreased serum growth hormone and gastrin levels”, the “Decrease in serum GH levels” value ([3]; mice treated with RC-160 as compared with control mice) was “about 48%” and the “Bombesin/GRP maximal binding capacity (Bmax)” value [4] was 435 fmol mg-'protein. The “EGF maximal binding capacity (Bmax)” value ([5]; Table IV, Experiment I (SCLC-H69), tumour membranes after in vivo treatment, control 278, ten-point displacement in triplicate tubes, done once) was 174 fmol mg' protein, the “EGF receptors on H69 tumours (in words)” value ([5]; after in vivo treatment) was “down-regulated” and the “IGF-I maximal binding capacity (Bmax)” value [6] was 176 fmol mg' protein. The “Serum gastrin levels (in words)” value [7] was “significantly decreased serum growth hormone and gastrin levels”, the “Reduction in tumour volumes” value [8, 12] was “more than 70%” and the “Reduction in tumour weights” value [8, 12] was “more than 70%”. The “Time from which tumour growth was significantly inhibited” value ([8]; SCLC H69 tumours, P<0.01, from start of the experiment) was 14 days, the “Tumour volume, final” value ([8]; Table I, Experiment I (SCLC-H69), 5 weeks s.c. peritumoral, RC-160 100 µg/day, RC-3440, RC-3095, RC-3950-II 20 µg/day per animal, control 249.7 ? 182.3, means ? s.d., ten animals per group, *P<0.05 vs control) was 66.0 26.5* (mm)r and the Tumour weight ([8]; Table I, Experiment I (SCLC-H69), 5 weeks s.c. peritumoral, RC-160 100 µg/day, antagonists 20 µg/day per animal, control 0.27 ? 0.19, means ? s.d., *P<0.05 vs control) was 0.058 0.04* g. The Tumour doubling time ([8]; Table I, Experiment I (SCLC-H69), 5 weeks, RC-160 100 µg/day, antagonists 20 µg/day per animal s.c., control 7.5) was 12.7 days, the “Growth of H69 SCLC tumours (in words)” value ([8]; s.c. peritumorally, RC-160 100 µg, bombesin/GRP antagonists 20 µg per animal per day, 5 weeks) was “inhibited the growth of H69 SCLC xenografts” and the “Somatostatin maximal binding capacity (Bmax)” value ([9]; Table IV, Experiment I (SCLC-H69), tumour membranes after in vivo treatment, control 450, done once) was 570 fmol mg-'protein. For the same substance, the “Binding capacity of receptors for somatostatin on H69 tumours (in words)” value ([9]; after in vivo treatment) was “increased the binding capacity of receptors for somatostatin”, the “Effect on [3H]thymidine incorporation (in words)” value [10] was “inhibitory effect” and the “Effect on EGF-stimulated cell growth (in words)” value [11] was “reversed the stimulatory effect of EGF”. For the same substance, the “Effect on EGF-stimulated phosphorylation of the tyrosine kinase domain of the EGF receptors (in words)” value [11] was “reversed the stimulatory effect of EGF”.
